Values of other authors as cited in patent publication US8088413B2, “Methods for improved cryo-chemotherapy tissue ablation” (Nuvue Therapeutics, Inc., priority 2004, dated 2012).

Assays:
[1] = system: human prostate cancer cell line, PC3; conditions: free drug given 2 to 4 days prior to freezing; drug and cryo levels individually ineffective
human prostate cancer = conditions: pretreatment; temperatures close to 0° C.

Molecule	kill efficacy of cryoinjury [1]	effect on cryoinjury (human prostate cancer)
O=c1[nH]cc(F)c(=O)[nH]1 [5-fluorouracil (5-FU), 5-fluorouracil]	increased kill efficacy	–
Tumor Necrosis Factor-alpha	–	augments the cryoinjury
